What was measured:
[1] = tested on: wild mustard (SINAR, Sinapis arvensis); assay: Greenhouse postemergence herbicidal effect, visual injury after 20-22 d; assay type: in vivo; conditions: for visual injury: Table 1
Source text: (§1) Seeds of the desired test plant species were planted in a 90:10% v/v (volume/volume) mixture of PRO-MIX® BX (Premier Tech Horticulture, Quakertown, Pa., USA) and PROFILE® GREENS GRADE™ (Profile Products LLC, Buffalo Grove, Ill., USA) planting mixture, which typically has a pH of 5.2 to 6.2 and an organic matter content of at least 50 percent, in plastic pots with a surface area of 103.2 square centimeters (cm^2). In some aspects, to ensure good germination and healthy plants, a fungicide treatment and/or other chemical or physical treatment was applied. The plants were grown for 7-36 days (d) in a greenhouse with an approximate 14-hour (h) photoperiod which was maintained at about 23° C. during the day and 22° C. during the night. Nutrients and water were added on a regular basis and supplemental lighting was provided with overhead metal halide 1000-Watt lamps as necessary. The plants were employed for testing when they reached the second or third true leaf stage.
(§2) Emulsifiable concentrates of each of each pyridine carboxylate herbicide (Compound A or Compound B) were prepared at 100 grams acid equivalent per liter (g ae/L). The emulsifiable concentrates also included a safener, cloquintocet-mexyl, at 120 grams active ingredient per liter (g ai/L). An aliquot of each emulsifiable concentrate was placed in a 25 mL glass vial and diluted with an aqueous mixture of 1.25% (v/v) ACTIROB® B esterified rapeseed oil (Bayer Crop Science, Research Triangle Park, N.C., USA) or MSO® Concentrate with LECI-TECH® methylated soybean oil (Loveland Products, Loveland, Colo., USA) to obtain concentrated stock solutions at the highest application rate for each herbicide, based upon a 12 milliliter (mL) application volume at a rate of 187 liters per hectare (L/ha). The concentrated stock solutions were further diluted with an aqueous mixture of 1.25% v/v ACTIROB® B or MSO® Concentrate with LECI-TECH® to obtain stock solutions at reduced application rates for each herbicide. Spray solutions of the herbicide combinations (Compound A or Compound B plus PDS inhibitor herbicide) were prepared by adding weighed amounts or aliquots of the PDS inhibitor herbicide to the stock solutions of Compound A or Compound B to form 12-mL spray solutions in two- or three-way combinations.
(§3) The spray solutions were applied to the plant material with an overhead Mandel track sprayer equipped with 8002E nozzles calibrated to deliver 187 L/ha over an application area of 0.503 square meters (m^2) at a spray height of 18 inches ([…] centimeters (cm)) above the average plant canopy. Control plants were sprayed in the same manner with the solvent blank. All pyridine carboxylate herbicide (component a) application rates are given as “g ae/ha” and all PDS inhibitor herbicide (component b) application rates are given as “g ai/ha.”
(§4) The treated plants and control plants were placed in a greenhouse as described above and watered by sub-irrigation to prevent wash-off of the test compounds. After 20-22 d, the condition of the test plants as compared with that of the control plants was determined visually and scored on a scale of 0 to 100 percent where 0 corresponds to no injury and 100 corresponds to complete kill.

[2] = tested on: barnyardgrass (ECHCG, Echinochloa crus-galli); assay: as above; assay type: in vivo; conditions: Table 4
Source text: as §1, §2, §3, §4

[3] = tested on: spring rape (BRSNN, Brassica napus); assay: as above; assay type: in vivo
Source text: as §1, §2, §3, §4

[4] = tested on: common rice (ORYSA, Oryza sativa); assay: as above; assay type: in vivo; conditions: Table 4
Source text: as §1, §2, §3, §4

[5] = tested on: winter rape (BRSNW, Brassica napus); assay: as above; assay type: in vivo; conditions: for visual injury: Table 1
Source text: as §1, §2, §3, §4

[6] = tested on: common lambsquarters (CHEAL, Chenopodium album L.); assay: as above; assay type: in vivo; conditions: for visual injury: Table 1
Source text: as §1, §2, §3, §4

[7] = tested on: poinsettia (EPHHL, Euphorbia heterophylla); assay: as above; assay type: in vivo
Source text: as §1, §2, §3, §4

[8] = tested on: soybean (GLXMA=Glycine max); assay: as above; assay type: in vivo; conditions: Table 4
Source text: as §1, §2, §3, §4

[9] = tested on: pigweed (AMARE, Amaranthus retroflexus); assay: as above; assay type: in vivo; conditions: for visual injury: Table 1
Source text: as §1, §2, §3, §4

spring wheat (TRZAS) = assay: Greenhouse postemergence phytotoxicity on crop, visual injury after 20-22 d; assay type: in vivo, Triticum aestivum; conditions: for visual injury: Table 1
Source text: as §1, §2, §3, §4

**Q.** What does the source list for N#CCOC(=O)c1nc(-c2ccc3cc[nH]c3c2F)c(F)c(N)c1Cl [Compound A, cyanomethyl 4-amino-3-chloro-5-fluoro-6-(7-fluoro-1H-indol-6-yl)pyridine-2-carboxylate]?
**A.** visual injury ([1]; 7.5 g/ha): 88%; visual injury Obs ([1]; 7.5 g/ha, Table 2): 88%; visual injury Obs ([1]; 7.5 g/ha, Table 3): 85%; visual injury Obs ([1]; 7.5 g/ha, Table 7): 85%; visual injury ([1]; 10 g/ha): 90%; visual injury Obs ([1]; 10 g/ha, Table 2): 92%; visual injury Obs ([1]; 10 g/ha, Table 3): 90%; visual injury Obs ([1]; 10 g/ha, Table 7): 88%; visual injury Obs ([2]; 7.5 g/ha): 73%; visual injury Obs ([2]; 10 g/ha): 78%; visual injury Obs ([3]; 7.5 g/ha, Table 2): 55%; visual injury Obs ([3]; 7.5 g/ha, Table 3): 55%; visual injury Obs ([3]; 7.5 g/ha, Table 4): 73%; visual injury Obs ([3]; 10 g/ha, Table 2): 60%; visual injury Obs ([3]; 10 g/ha, Table 3): 70%; visual injury Obs ([3]; 10 g/ha, Table 4): 83%; visual injury Obs ([4]; 7.5 g/ha): 13%; visual injury Obs ([4]; 10 g/ha): 10%; visual injury ([5]; 7.5 g/ha): 35%; visual injury Obs ([5]; 7.5 g/ha, Table 7): 63%; visual injury Obs ([5]; 7.5 g/ha, Table 8): 60%; visual injury ([5]; 10 g/ha): 43%; visual injury Obs ([5]; 10 g/ha, Table 7): 68%; visual injury Obs ([5]; 10 g/ha, Table 8): 60%; visual injury Obs ([5]; 15 g/ha, Table 8): 75%; visual injury ([6]; 7.5 g/ha): 88%; visual injury Obs ([6]; 7.5 g/ha, Table 2): 70%; visual injury Obs ([6]; 7.5 g/ha, Table 3): 60%; visual injury Obs ([6]; 7.5 g/ha, Table 4): 97%; visual injury Obs ([6]; 7.5 g/ha, Table 7): 70%; visual injury Obs ([6]; 7.5 g/ha, Table 8): 70%; visual injury ([6]; 10 g/ha): 93%; visual injury Obs ([6]; 10 g/ha, Table 2): 83%; visual injury Obs ([6]; 10 g/ha, Table 3): 90%; visual injury Obs ([6]; 10 g/ha, Table 4): 93%; visual injury Obs ([6]; 10 g/ha, Table 7): 78%; visual injury Obs ([6]; 10 g/ha, Table 8): 78%; visual injury Obs ([6]; 15 g/ha, Table 8): 83%; visual injury Obs ([7]; 7.5 g/ha, Table 5): 91%; visual injury Obs ([7]; 7.5 g/ha, Table 6): 91%; visual injury Obs ([7]; 10 g/ha, Table 5): 83%; visual injury Obs ([7]; 10 g/ha, Table 6): 83%; visual injury Obs ([8]; 7.5 g/ha): 93%; visual injury Obs ([8]; 10 g/ha): 95%; visual injury ([9]; 7.5 g/ha): 78%; visual injury Obs ([9]; 7.5 g/ha, Table 3): 70%; visual injury Obs ([9]; 7.5 g/ha, Table 5): 80%; visual injury Obs ([9]; 7.5 g/ha, Table 6): 80%; visual injury Obs ([9]; 7.5 g/ha, Table 7): 70%; visual injury Obs ([9]; 7.5 g/ha, Table 8): 78%; visual injury ([9]; 10 g/ha): 73%; visual injury Obs ([9]; 10 g/ha, Table 3): 98%; visual injury Obs ([9]; 10 g/ha, Table 5): 85%; visual injury Obs ([9]; 10 g/ha, Table 6): 85%; visual injury Obs ([9]; 10 g/ha, Table 7): 90%; visual injury Obs ([9]; 10 g/ha, Table 8): 78%; visual injury Obs ([9]; 15 g/ha, Table 8): 83%; visual injury (spring wheat (TRZAS); 7.5 g/ha): 0%; visual injury Obs (spring wheat (TRZAS); 7.5 g/ha, Table 2): 0%; visual injury Obs (spring wheat (TRZAS); 7.5 g/ha, Table 3): 0%; visual injury Obs (spring wheat (TRZAS); 7.5 g/ha, Table 5): 0%; visual injury Obs (spring wheat (TRZAS); 7.5 g/ha, Table 6): 0%; visual injury Obs (spring wheat (TRZAS); 7.5 g/ha, Table 7): 0%; visual injury Obs (spring wheat (TRZAS); 7.5 g/ha, Table 8): 3%; visual injury (spring wheat (TRZAS); 10 g/ha): 0%; visual injury Obs (spring wheat (TRZAS); 10 g/ha, Table 2): 0%; visual injury Obs (spring wheat (TRZAS); 10 g/ha, Table 3): 0%; visual injury Obs (spring wheat (TRZAS); 10 g/ha, Table 5): 0%; visual injury Obs (spring wheat (TRZAS); 10 g/ha, Table 6): 0%; visual injury Obs (spring wheat (TRZAS); 10 g/ha, Table 7): 0%; visual injury Obs (spring wheat (TRZAS); 10 g/ha, Table 8): 3%; visual injury Obs (spring wheat (TRZAS); 15 g/ha, Table 8): 0%
